Test [1] has as its target prothrombinase complex (Homo sapiens, UniProt P00742). Nature of the test: Prothrombinase inhibition assay, plasma free system. It is filed as biochemical. As for the experimental part:
The prothrombinase inhibition assay is performed in a plasma free system with modifications to the method described by Sinha, U. et al., Thromb. […] Specifically, the activity of the prothrombinase complex is determined by measuring the time course of thrombin generation using the p-nitroanilide substrate Chromozym TH. […] Aliquots from the complex-inhibitor mixture are added to prothrombin (1 nM) and Chromozym TH (0.1 mM). […] Eight different concentrations of inhibitor are assayed in duplicate. A standard curve of thrombin generation by an equivalent amount of untreated complex is used for determination of percent inhibition.

Test [2] has as its target thrombin (Homo sapiens, UniProt P00734). Kind of test: Thrombin amidolytic assay (Chromozym TH).
Experimental: (§2) In the assays for thrombin, prothrombinase and factor Xa, a synthetic chromogenic substrate is added to a solution containing test compound and the enzyme of interest and the residual catalytic activity of that enzyme is determined spectrophotometrically. The IC50 of a compound is determined from the substrate turnover. […] The factor Xa and thrombin assays are performed at room temperature, in 0.02 M Tris.HCl buffer, pH 7.5, containing 0.15 M NaCl.
The target of test [3] is factor Xa (Homo sapiens, UniProt P00742). Nature of the test: Factor Xa amidolytic assay (chromogenic substrate S-2765).
Experimental: as §2
In test [4] the target is TPA (Homo sapiens, UniProt P00750). Nature of the test: In vitro protease activity assay, TPA. It is filed as biochemical. An excerpt: (§1) Evaluation of the compounds of this invention is guided by in vitro protease activity assays (see below) and in vivo studies to evaluate antithrombotic efficacy, and effects on hemostasis and hematological parameters (see below).
Test [5] concerns the target APC (Homo sapiens, UniProt P04070). Kind of test: In vitro protease activity assay, APC. It is filed as biochemical.
Excerpt: as §1

In test [6] the target is T1, PLASMIN (Homo sapiens, UniProt P00747).
T1 construct: PLASMIN
Kind of test: In vitro protease activity assay, plasmin. The format is biochemical.
Excerpt: as §1

The mark [7] stands for this setting: Table 4, read-out: IC50 (nM) Prothrombinase.
[8] abbreviates: Table 6, read-out: IC50 (nM) Prothrombinase.

This note sets out measurements from patent publication US20020019394A1, “Bicyclic sulfonyl amino inhibitors of factor Xa” (priority 2000, published 2002).

Like-named read-outs stand apart in the source and are kept apart here. Where only a bound is given, the exact number is not on record here.

T1 sequence (P00747 581-810 limits assumed, species assumed): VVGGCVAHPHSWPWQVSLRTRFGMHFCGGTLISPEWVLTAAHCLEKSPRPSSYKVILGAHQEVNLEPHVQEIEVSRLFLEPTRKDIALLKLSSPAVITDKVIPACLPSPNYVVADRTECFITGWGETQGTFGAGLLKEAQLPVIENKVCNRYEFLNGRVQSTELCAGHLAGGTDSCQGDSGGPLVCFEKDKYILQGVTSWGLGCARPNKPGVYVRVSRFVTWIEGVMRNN
T1 sequence (P00747 97-580 limits assumed, species assumed): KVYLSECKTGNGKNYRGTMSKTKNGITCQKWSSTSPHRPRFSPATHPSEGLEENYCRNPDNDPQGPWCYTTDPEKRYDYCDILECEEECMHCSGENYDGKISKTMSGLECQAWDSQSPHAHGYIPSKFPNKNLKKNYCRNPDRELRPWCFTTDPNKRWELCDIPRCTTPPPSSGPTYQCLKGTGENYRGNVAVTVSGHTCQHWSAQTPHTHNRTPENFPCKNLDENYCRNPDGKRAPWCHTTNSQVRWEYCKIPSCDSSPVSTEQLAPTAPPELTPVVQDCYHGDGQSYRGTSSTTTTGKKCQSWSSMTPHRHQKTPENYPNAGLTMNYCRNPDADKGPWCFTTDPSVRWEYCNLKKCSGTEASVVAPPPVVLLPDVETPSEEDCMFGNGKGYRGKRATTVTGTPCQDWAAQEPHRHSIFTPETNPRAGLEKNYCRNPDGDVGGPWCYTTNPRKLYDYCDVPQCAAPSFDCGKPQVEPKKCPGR
Chain of TPA (P00750 36-562, species assumed): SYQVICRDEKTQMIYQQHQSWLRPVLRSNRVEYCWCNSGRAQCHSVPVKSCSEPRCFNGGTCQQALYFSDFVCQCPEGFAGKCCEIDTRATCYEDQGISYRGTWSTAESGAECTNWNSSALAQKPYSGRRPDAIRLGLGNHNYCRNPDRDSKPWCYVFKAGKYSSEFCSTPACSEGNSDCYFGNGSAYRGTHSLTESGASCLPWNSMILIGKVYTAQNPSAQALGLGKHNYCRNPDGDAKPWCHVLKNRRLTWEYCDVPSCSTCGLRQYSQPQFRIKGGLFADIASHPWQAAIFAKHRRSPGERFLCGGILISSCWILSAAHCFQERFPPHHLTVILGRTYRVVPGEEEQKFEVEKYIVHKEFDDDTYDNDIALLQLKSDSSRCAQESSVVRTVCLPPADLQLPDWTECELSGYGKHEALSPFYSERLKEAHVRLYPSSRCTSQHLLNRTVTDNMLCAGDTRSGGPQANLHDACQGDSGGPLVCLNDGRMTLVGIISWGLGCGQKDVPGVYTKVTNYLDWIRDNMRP
Chain of APC (P04070 212-450 limits assumed): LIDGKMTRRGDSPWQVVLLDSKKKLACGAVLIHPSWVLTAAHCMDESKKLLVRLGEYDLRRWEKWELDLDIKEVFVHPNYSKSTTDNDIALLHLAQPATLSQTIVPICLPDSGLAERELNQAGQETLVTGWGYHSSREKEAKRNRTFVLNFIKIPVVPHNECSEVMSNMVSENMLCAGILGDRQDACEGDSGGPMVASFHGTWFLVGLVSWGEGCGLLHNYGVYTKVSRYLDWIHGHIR
Chain of APC (P04070 43-197 limits assumed): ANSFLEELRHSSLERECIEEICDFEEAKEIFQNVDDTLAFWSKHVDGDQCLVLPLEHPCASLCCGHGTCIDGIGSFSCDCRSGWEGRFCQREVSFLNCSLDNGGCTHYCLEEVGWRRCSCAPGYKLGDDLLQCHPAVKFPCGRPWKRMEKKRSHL
Chain of factor Xa (P00742 235-488 limits assumed): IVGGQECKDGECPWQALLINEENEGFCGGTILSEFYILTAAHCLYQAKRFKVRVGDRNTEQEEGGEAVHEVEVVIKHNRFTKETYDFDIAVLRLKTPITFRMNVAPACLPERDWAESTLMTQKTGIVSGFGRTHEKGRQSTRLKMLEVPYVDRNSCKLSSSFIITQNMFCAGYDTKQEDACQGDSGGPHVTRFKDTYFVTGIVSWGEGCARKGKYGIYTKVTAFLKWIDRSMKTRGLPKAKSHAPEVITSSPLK
Chain of factor Xa (P00742 41-179 limits assumed): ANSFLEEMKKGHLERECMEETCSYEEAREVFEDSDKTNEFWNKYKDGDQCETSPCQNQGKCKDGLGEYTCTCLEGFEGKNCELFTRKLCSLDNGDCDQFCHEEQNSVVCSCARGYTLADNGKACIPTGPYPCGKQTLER
Chain of prothrombinase complex (P00742 235-488 limits assumed): as the sequence (P00742 235-488 limits assumed) above
Chain of prothrombinase complex (P00742 41-179 limits assumed): as the sequence (P00742 41-179 limits assumed) above
Chain of prothrombinase complex (P12259 29-737 partner limits assumed): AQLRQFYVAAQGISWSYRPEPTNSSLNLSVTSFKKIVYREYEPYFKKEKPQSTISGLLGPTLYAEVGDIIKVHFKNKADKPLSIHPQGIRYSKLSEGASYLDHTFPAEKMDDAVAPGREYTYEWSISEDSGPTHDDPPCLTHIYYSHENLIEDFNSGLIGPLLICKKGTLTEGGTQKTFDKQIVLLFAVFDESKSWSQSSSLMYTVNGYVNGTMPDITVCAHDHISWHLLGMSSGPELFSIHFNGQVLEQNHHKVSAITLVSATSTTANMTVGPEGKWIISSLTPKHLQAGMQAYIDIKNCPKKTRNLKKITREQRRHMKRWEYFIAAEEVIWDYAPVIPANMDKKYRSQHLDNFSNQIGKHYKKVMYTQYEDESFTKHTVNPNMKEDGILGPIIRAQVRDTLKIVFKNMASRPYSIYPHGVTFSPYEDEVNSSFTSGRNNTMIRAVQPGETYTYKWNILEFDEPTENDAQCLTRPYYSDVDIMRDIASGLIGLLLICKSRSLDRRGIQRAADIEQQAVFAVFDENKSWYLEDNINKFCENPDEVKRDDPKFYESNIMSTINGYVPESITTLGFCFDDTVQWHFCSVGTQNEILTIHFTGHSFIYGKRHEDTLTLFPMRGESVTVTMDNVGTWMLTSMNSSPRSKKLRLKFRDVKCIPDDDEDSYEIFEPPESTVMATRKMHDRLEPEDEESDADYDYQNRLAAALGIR
Chain of prothrombinase complex (P12259 1574-2224 partner limits assumed): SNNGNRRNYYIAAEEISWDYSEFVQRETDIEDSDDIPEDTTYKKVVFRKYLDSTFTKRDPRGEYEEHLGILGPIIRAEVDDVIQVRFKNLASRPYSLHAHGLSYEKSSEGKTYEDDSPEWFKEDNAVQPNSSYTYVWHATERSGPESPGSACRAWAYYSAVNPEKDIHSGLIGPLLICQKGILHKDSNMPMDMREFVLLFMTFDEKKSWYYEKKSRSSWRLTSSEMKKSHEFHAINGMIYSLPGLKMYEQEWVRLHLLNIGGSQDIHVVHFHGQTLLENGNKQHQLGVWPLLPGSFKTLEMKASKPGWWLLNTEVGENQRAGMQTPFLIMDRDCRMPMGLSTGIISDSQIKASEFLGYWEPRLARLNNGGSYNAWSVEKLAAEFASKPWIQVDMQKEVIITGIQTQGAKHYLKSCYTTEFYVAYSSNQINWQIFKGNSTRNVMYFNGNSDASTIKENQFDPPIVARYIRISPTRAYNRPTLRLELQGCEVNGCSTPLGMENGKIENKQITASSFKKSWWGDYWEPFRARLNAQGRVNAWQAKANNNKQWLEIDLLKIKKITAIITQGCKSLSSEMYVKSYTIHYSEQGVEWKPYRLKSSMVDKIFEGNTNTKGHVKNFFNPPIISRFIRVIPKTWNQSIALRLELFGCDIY

With `CC(=N)N1CCC(Oc2ccc(N(Cc3ccc4ccc(C(=N)N)cc4c3)S(C)(=O)=O)cc2)CC1` [Compound 2], the IC50 in test [1] (setting [7]) worked out at 7 nM; in test [2], 95.2 µM; in test [3], 0.0063 µM.
`CC(=N)N1CCC(Oc2ccc(N(Cc3cccc(-c4cccc(C(=N)N)c4)c3)S(C)(=O)=O)cc2)CC1` [Compound 3] yielded an IC50 in test [2] of 133 µM.
As for `CC(=N)N1CCC(Oc2ccc(N(Cc3ccc(-c4cccc(C(=N)N)c4)cc3)S(C)(=O)=O)cc2)CC1` [Compound 12], the IC50 in test [1] (Table 3, read-out: IC50 (nM) Prothrombinase) was 730 nM; in test [2], over 11 µM; in test [3], 0.0252 µM.
On to `CC(=N)N1CCC(Oc2ccc(N(Cc3cc4cc(C(=N)N)ccc4s3)S(C)(=O)=O)cc2)CC1` [Compound 13], for which, in test [2], the IC50 was 30.9 µM.
As to `CC(=N)N1CCC(Oc2ccc(N(Cc3cc4cc(C(=N)N)ccc4n3C)S(C)(=O)=O)cc2)CC1` [Compound 15], the figures for the IC50 in test [1] (setting [7]), in test [2] and in test [3] were 66.5 nM, 11.8 µM and 0.0306 µM, respectively.
As to `CC(=N)N1CCC(Oc2ccc(N(Cc3cc(C)nn3-c3cccc(C(=N)N)c3)S(C)(=O)=O)cc2)CC1` [Compound 16], the IC50 in test [2] is over 11 µM.
`CC(=N)N1CCC(Oc2ccc(N(Cc3cc(C)n(-c4cccc(C(=N)N)c4)n3)S(C)(=O)=O)cc2)CC1` [Compound 17]: the IC50 in test [2] was over 11 µM.
Consider `CS(=O)(=O)N(Cc1ccc2ccc(C(=N)N)cc2c1)c1ccc(C(=O)N2CCC[C@H]2C(N)=O)cc1` [Compound 25], for which the IC50 in test [1] (Table 5, read-out: IC50 (nM) Prothrombinase) was determined as 95000 nM; in test [2], 146 µM; in test [3], 4.06 µM.
In the case of `CC(=N)N1CCC(Oc2ccc(N(Cc3cccc(-c4cccc(C(=N)N)c4)c3)S(=O)(=O)CC(=O)O)cc2)CC1` [Compound 41], the IC50 in test [1] (setting [8]) came out at 6.6 nM; in test [2] it was 39.2 µM; in test [3], 0.0036 µM.
On the same counts, the results for `CCOC(=O)CS(=O)(=O)N(Cc1cc2cc(C(=N)N)ccc2s1)c1ccc(OC2CCN(C(C)=N)CC2)cc1` [Compound 42] are 8.4 nM, 12 µM and 0.0091 µM.
Regarding `CC(=N)N1CCC(Oc2ccc(N(Cc3cc4cc(C(=N)N)ccc4s3)S(=O)(=O)CC(=O)O)cc2)CC1` [Compound 43], the IC50 in test [1] (setting [8]) was 7.6 nM; in test [2], 193 µM; in test [3] it was 0.0035 µM.
In the case of `N=C(N)c1ccc2ccc(CN3c4ccc(OC5CCNCC5)cc4C=CS3(=O)=O)cc2c1` [Example 1], the values for the IC50 in test [1] (read-out: IIASE), in test [2] and in test [3] were 15800 nM, 136 µM and 1.03 µM, respectively.
`CC(=N)N1CCC(Oc2ccc3c(c2)C=CS(=O)(=O)N3Cc2ccc3ccc(C(=N)N)cc3c2)CC1` [Example 2]: the IC50 in test [1] (read-out: IIASE) was 64.6 nM; in test [4], 1.6 µM; in test [5], 1.88 µM; in test [6], 2.35 µM; in test [2] it was 117 µM; in test [3], 0.00641 µM.
For `N=C(N)c1ccc2ccc(CN3c4ccc(OC5CCN(C(=N)N)CC5)cc4C=CS3(=O)=O)cc2c1` [Example 3], the IC50 came out at 10 nM in test [1] (read-out: IIASE); 1.21 µM in test [4]; 0.895 µM in test [5]; 1.14 µM in test [6]; 16.7 µM in test [2]; 0.0113 µM in test [3].
As to `N=C(N)c1ccc2ccc(CN3c4ccc(OC5CCNCC5)cc4CCS3(=O)=O)cc2c1` [Example 4], the IC50 stood at 2000 nM in test [1] (read-out: IIASE), 256 µM in test [2] and 1.18 µM in test [3].
For `NC(=O)c1ccc2ccc(CN3c4ccc(OC5CCNCC5)cc4CCS3(=O)=O)cc2c1` [Example 5], the IC50 in test [1] (read-out: IIASE) is 1290 nM; in test [3] it was 1.31 µM.
For `CC(=N)N1CCC(Oc2ccc3c(c2)CCS(=O)(=O)N3Cc2ccc3ccc(C(=N)N)cc3c2)CC1` [Example 6], the IC50 in test [1] (read-out: IIASE) came out at 12.2 nM; in test [4], 4.53 µM; in test [5], 3.85 µM; in test [6], 2.36 µM; in test [2], 116 µM; in test [3], 0.012 µM.
Consider `N=C(N)c1ccc2ccc(CN3c4ccc(OC5CCN(C(=N)N)CC5)cc4CCS3(=O)=O)cc2c1` [Example 7], for which the IC50 in test [1] (read-out: IIASE) is 33.2 nM; in test [4] it was 5.96 µM; in test [5], 3.37 µM; in test [6] it was 2.23 µM; in test [2], 24.8 µM; in test [3], 0.0153 µM.
Take `CS(=O)(=O)N(Cc1ccc2ccc(C(=N)N)cc2c1)c1ccc(C(=O)N2CCCC2C(N)=O)cc1` (stereo not shown) [Example 24]: the IC50 in test [3] (read-out: XA, Examples 1-26 table) stood at 3.44 µM.
